Data on 35 compounds can be found in PubChem BioAssay AID463204 (Broad Institute, 2010).

Usually AC50 stands for the concentration giving half of the maximal activity seen.

The source made the active and inactive calls.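 Rule for the calls: active = AC50 no more than ten times the top concentration tested, that is within one log above it; inconclusive = flat curve fit with activity between 30% and 70%, or invalid poor fit; inactive = AC50 beyond ten times the top tested dose.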

The assay concerns S. cerevisiae Mot1-301 ts growth rescue, BacTiter-Glo ATP luminescence. Put plainly: growth rescue of Mot1-301 ts yeast, confirmation, SUMOylation pathway inhibitor project, whole organism, S. cerevisiae, Mot1-301 ts mutant, luminescence, dose retest (AID 463204).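 Note: growth at restrictive 38.5 degrees C of Mot1-301 OY566 strain; actives raise luminescence by restoring growth of the ts mutant at high temperature.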

Take `Cc1cc(O)c(/C=N/Nc2cccc(Cl)c2)c(=O)o1`: the AC50 is 3.95 µM.
Regarding `CCCn1c(N)cc(=O)n(CCC)c1=O`, the AC50 is > 42 µM (inactive).
As to `CCCCC(O)(c1ccc(F)cc1)C(CN1CCOCC1)c1ccc(Cl)cc1` (stereo not given), the AC50 is 5.49 µM.
The same measure for `O=C(CCc1ccccc1)NNC(=O)c1ccc(Br)cc1`: > 42 µM (inactive).
On to `COc1ccc2c(C(=O)CN3CC(C)OC(C)C3)c[nH]c2c1` (stereo not given), for which the AC50 is > 42 µM (inactive).
With `Fc1cccc(Cl)c1CSc1nnc(CN2CCOCC2)n1-c1ccccc1`, the AC50 was > 42 µM (inactive).
Turning to `Nn1c(SCc2cc([N+](=O)[O-])cc3c2OCOC3)nnc1-c1ccccn1`, the AC50 is > 42 µM (inactive).
`CN(C)/C=C/C(=O)c1ccncc1`: the AC50 was > 42 µM (inactive).
Turning to `COc1cccc(NC(=O)CN(C)C(=O)c2ccccc2OCc2c(C)noc2C)c1`, the AC50 was > 42 µM (inactive).
`COc1cc([N+](=O)[O-])cc(/C=N/NC(=O)c2cc(C)nc3ccccc23)c1O`: the AC50 is > 42 µM (inactive).
The result for `Cc1cnc(=O)[nH]c1SCC(=O)c1ccc(F)cc1` reads > 42 µM (inactive).
In the case of `CCC1CCCCN1C(=O)CSc1nnc(CNC(=O)c2ccco2)o1` (stereo not given), the AC50 is > 42 µM (inactive).
Consider `Oc1c(Br)cc(Cl)cc1C=Nc1ccccc1Br`, for which the concentration at half-maximal activity (AC50) is 4.15 µM.
As to `CCc1c(C(=O)N2CCN(c3ccccc3F)CC2)[nH]c(C)c1C(C)=O`, the AC50 is > 42 µM (inactive).
`Cc1cccc(C)c1NC(=O)C1(N(Cc2ccco2)C(=O)CC2NC(=O)NC2=O)CCCCC1` (stereo not given): the AC50 is > 42 µM (inactive).
In the case of `COCCNC(=O)C(=O)N/N=C(\C)CC(=O)Nc1cccc(C(F)(F)F)c1`, the AC50 was > 42 µM (inactive).
On to `CCOC(=O)C1C(c2ccc(C)o2)NC(=O)NC1(O)C(F)(F)F` (stereo not given), for which the AC50 was > 42 µM (inactive).
As for `O=C(CS(=O)c1ccc(C(F)(F)F)cc1[N+](=O)[O-])Oc1ccc(Cl)cc1` (stereo not given), the AC50 was 1.47 µM.
Take `O=C1c2ccccc2C(=O)N1CCSc1ccccc1`: the AC50 is > 42 µM (inactive).
The same measure for `CC(=Nc1ccccc1)C1=C(O)CC(C)(C)CC1=O`: > 42 µM (inactive).
Turning to `COc1ccccc1CNC(=O)[C@H](C)NC(=O)C1CCN(C(=O)[C@@H](N)CC(C)C)CC1`, the AC50 is > 42 µM (inactive).
The result for `N#Cc1cc([N+](=O)[O-])cnc1NCC(O)CO` (stereo not given) reads > 42 µM (inactive); that for `O=C(NCCc1c[nH]c2ccccc12)c1cc(S(=O)(=O)N2CCCCC2)ccc1N1CCOCC1`, > 42 µM (inactive).
`CC1CCCCN1C(=O)C(Cc1ccccc1)N1C(=O)C2CCCCC2C1=O` (stereo not given): the AC50 is 32.5 µM.
With `COc1ccc2c(c1)OC[C@H]1[C@H]2N2C(=O)c3cc(F)ccc3NC(=O)[C@@]2(C)[C@H]1c1ccccc1`, the AC50 was 3.15 µM.
With `Cc1cc(C)c(NC(=O)Cn2c([N+](=O)[O-])cnc2C)c(C)c1`, the AC50 was > 42 µM (inactive).
`CN(C)C(=O)CSc1nc2ccc(N3C(=O)c4ccccc4C3=O)cc2s1`: the AC50 is > 42 µM (inactive).
Consider `CCCCCCCCc1nc(SCC(C)=O)n[nH]1`, for which the AC50 was > 42 µM (inactive).
As for `CCOc1ccc(Cn2c(SCCCCC#N)nc3c2c(=O)n(C)c(=O)n3C)cc1OCC`, the AC50 is > 42 µM (inactive).
Consider `Cc1c(C(=O)N2CCCC2)c(S(=O)(=O)Nc2cccc(Br)c2)c(C)n1C`, for which the AC50 is > 42 µM (inactive).
The result for `CC(=O)Nc1ccc(S(=O)(=O)Nc2ccc3c(c2)C(=O)OC3)cc1` reads > 42 µM (inactive).
Turning to `O=C(NC1CCCCCC1)C1CCN(S(=O)(=O)c2cccc3cccnc23)CC1`, the AC50 was > 42 µM (inactive).
Regarding `Cc1c(OC(C)C(=O)N2C[C@H]3C[C@@H](C2)c2cccc(=O)n2C3)ccc2c3c(c(=O)oc12)CCCC3` (stereo not given in full), the AC50 was > 42 µM (inactive).
`N=c1n(CCCOc2ccc(Br)cc2)c2ccccc2n1CC(N)=O`: the AC50 was > 42 µM (inactive).
With `Cc1ccc(NC(=O)CC2CS(=O)(=O)CC2CC(=O)Nc2ccc(C)c(C)c2)cc1C` (stereo not given), the AC50 was > 42 µM (inactive).
